Key:
[1] = given along with vortioxetine (Fig. 4)
[2] = cited from earlier work
[3] = cocktail with vortioxetine (Fig. 4)

Row | SMILES | effect of vortioxetine on the pharmacokinetics of the co-administered drug [1] | other results
1 | C#C[C@]1(O)CC[C@H]2[C@@H]3CCC4=CC(=O)CC[C@@H]4[C@H]3CC[C@@]21CC [levonorgestrel] | No effect | –
2 | COc1ccc2[nH]c([S+]([O-])Cc3ncc(C)c(OC)c3C)nc2c1 (stereo not shown) [omeprazole] | no apparent effect | C max, upper limit of the 90% CI (with vs without vortioxetine) ([2]; multiple doses of vortioxetine (Fig. 4)): 130%; 90% CI for AUC(0–inf) (with vs without vortioxetine) ([2]; multiple doses of vortioxetine, within limits): 80–125%
3 | Cc1ncc2n1-c1ccc(Cl)cc1C(c1ccccc1F)=NC2 [midazolam] | No effect | –
4 | Cn1c(=O)c2c(ncn2C)n(C)c1=O [caffeine] | No effect | –
5 | C#C[C@]1(O)CC[C@H]2[C@@H]3CCc4cc(O)ccc4[C@H]3CC[C@@]21C [ethinyl estradiol] | No effect | –
6 | CCO [ethanol] | No effect | –
7 | O=C([O-])[O-].[Li+].[Li+] [lithium] | No effect | –
8 | COc1ccc2c(c1)[C@]13CCCC[C@@H]1[C@H](C2)N(C)CC3 [dextromethorphan] | – | AUC(0–inf), 90% CI lower limit (with vs without vortioxetine) [2, 3]: 58%; C max, 90% CI lower limit (with vs without vortioxetine) [2, 3]: 68%
9 | CC(=O)Oc1ccccc1C(=O)O [aspirin] | No effect | –
10 | CN1C(=O)CN=C(c2ccccc2)c2cc(Cl)ccc21 [diazepam] | No effect | –

Reference: paper PMC5973995 (Clinical Pharmacokinetics, 2017)
